Measured values taken from patent publication US20240400555A1 (Initial Therapeutics, Inc., priority 2023, published 2024).

System: MV-4-11 cells
Assay: Cell Viability Assay in MV-4-11 Cells
Format: cell-based
Conditions: Homo sapiens, MV4-11, 72 h
Method in brief: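 Luminescent ATP read-out (CellTiter-Glo) after 72 h compound treatment of MV-4-11 leukaemia cells (7,000 per well, IMDM plus 10% FBS). Values expressed relative to DMSO control and derived by four-parameter non-linear regression.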

Structure (SMILES) | IC50
Cc1csc(-c2ccc(C(=O)N(c3nccc4cccc(C)c34)[C@@H]3CCCNC3)c(F)c2)n1 [Example 315, (R)-2-fluoro-N-(8-methylisoquinolin-1-yl)-4-(4-methylthiazol-2-yl)-N-(piperidin-3-yl)benzamide] | 240 nM

Same assay, conditions: Homo sapiens, MV4-11, 72 h, MV-4-11 cells, 72 h, Cell-Titer Glo; read-out: IC50

Structure (SMILES) | IC50
Cc1ncc(-c2cc3c(N(C(=O)c4ccc(-c5cn(C)nn5)cc4F)[C@@H]4CCCNC4)nccc3s2)s1 [Example 483, (R)-2-fluoro-4-(1-methyl-1H-1,2,3-triazol-4-yl)-N-(2-(2-methylthiazol-5-yl)thieno[3,2-c]pyridin-4-yl)-N-(piperidin-3-yl)benzamide] | 340 nM
COc1ccc(C)c2c(N(C(=O)c3ccc(-c4nnc(C)s4)cc3)[C@@H]3CCCNC3)nccc12 [Example 871, N-(5-methoxy-8-methyl-1-isoquinolyl)-4-(5-methyl-1,3,4-thiadiazol-2-yl)-N-[(3R)-3-piperidyl]benzamide] | 720 nM
O=C(c1ccc(-n2nnc3cccnc32)cc1F)N(c1nccc2sc(-c3cccc(-c4ncco4)c3)cc12)[C@@H]1CCCNC1 [Example 449, 2-fluoro-N-[2-(3-oxazol-2-ylphenyl)thieno [3,2-c]pyridin-4-yl]-N-[(3R)-3-piperidyl]-4-(triazolo [4,5-b]pyridin-3-yl) benzamide] | 940 nM
O=C(c1ccc(-n2nnc3cccnc32)cc1F)N(c1nccc2sc(-c3ccnnc3)cc12)[C@@H]1CCCNC1 [Example 455, 2-fluoro-N-[(3R)-3-piperidyl]-N-(2-pyridazin-4-ylthieno[3,2-c]pyridin-4-yl)-4-(triazolo[4,5-b]pyridin-3-yl)benzamide] | 650 nM
CNc1cccnc1Nc1ccc(C(=O)N(c2nccc3cccc(C)c23)[C@@H]2CCCNC2)c(F)c1 [Example 726, (R)-2-fluoro-4-((3-(methylamino)pyridin-2-yl)amino)-N-(8-methylisoquinolin-1-yl)-N-(piperidin-3-yl)benzamide] | 1900 nM
Cc1cccc2ccnc(N(C(=O)c3cccc(C#CCCN)c3)[C@@H]3CCCNC3)c12 [Example 515, (R)-3-(4-aminobut-1-yn-1-yl)-N-(8-methylisoquinolin-1-yl)-N-(piperidin-3-yl)benzamide] | 2100 nM
Cc1nnc(-c2ccc(C(=O)N(c3nccc4scc(C)c34)[C@@H]3CCCNC3)c(C)c2)s1 [Example 757, 2-methyl-4-(5-methyl-1,3,4-thiadiazol-2-yl)-N-(3-methylthieno[3,2-c]pyridin-4-yl)-N-[(3R)-3-piperidyl]benzamide] | 530 nM
C=CC(=O)NC1CCCN(C(=O)N(c2nccc3cccc(C)c23)[C@@H]2CCCNC2)C1 (stereo partly drawn) [Example 399, 3-acrylamido-N-(8-methylisoquinolin-1-yl)-N—((R)-piperidin-3-yl)piperidine-1-carboxamide] | 1100 nM
O=C(c1ccc(-n2nnc3cccnc32)cc1F)N(c1nccc2sc(-c3nccs3)cc12)[C@@H]1CCCNC1 [Example 417, 2-fluoro-N-[(3R)-3-piperidyl]-N-(2-thiazol-2-ylthieno[3,2-c]pyridin-4-yl)-4-(triazolo[4,5-b]pyridin-3-yl)benzamide] | 390 nM
Cc1ccc(C)c2c(N(C(=O)c3ccc(-c4cn(C)nn4)cc3)[C@@H]3CCCNC3)nccc12 [Example 861, N-(5,8-dimethyl-1-isoquinolyl)-4-(1-methyltriazol-4-yl)-N-[(3R)-3-piperidyl]benzamide] | 620 nM
Cc1cccc2ccnc(N(C(=O)N3CCCC(CCC(=O)Nc4ccc5cn[nH]c5c4)C3)[C@@H]3CCCNC3)c12 (stereo partly drawn) [Example 499, 3-(3-((1H-indazol-6-yl)amino)-3-oxopropyl)-N-(8-methylisoquinolin-1-yl)-N—((R)-piperidin-3-yl)piperidine-1-carboxamide] | 1700 nM
O=C(c1ccc(-n2nnc3cccnc32)cc1F)N(c1nccc2cc(-c3cccs3)ccc12)[C@@H]1CCCNC1 [Example 368, (R)-4-(3H-[1,2,3]triazolo[4,5-b]pyridin-3-yl)-2-fluoro-N-(piperidin-3-yl)-N-(6-(thiophen-2-yl)isoquinolin-1-yl)benzamide] | 500 nM
O=C(c1ccc(Nc2ncc(F)cn2)cc1F)N(c1nccc2cc(F)ccc12)[C@@H]1CCCNC1 [Example 787, (R)-2-fluoro-N-(6-fluoroisoquinolin-1-yl)-4-((5-fluoropyrimidin-2-yl)amino)-N-(piperidin-3-yl)benzamide] | 3000 nM
Cn1cc(-c2ccc(C(=O)N(c3nccc4cc(Cc5ccccc5)ccc34)[C@@H]3CCCNC3)c(F)c2)nn1 [Example 609, (R)—N-(6-benzylisoquinolin-1-yl)-2-fluoro-4-(1-methyl-1H-1,2,3-triazol-4-yl)-N-(piperidin-3-yl)benzamide] | 400 nM

The remaining lines, values ahead:

IC50 | Structure (SMILES)
300 nM | Cn1cc(-c2ccc(C(=O)N(c3nccc4cc(-c5cccc(CO)c5)ccc34)[C@@H]3CCCNC3)c(F)c2)nn1 [Example 490, (R)-2-fluoro-N-(6-(3-(hydroxymethyl)phenyl)isoquinolin-1-yl)-4-(1-methyl-1H-1,2,3-triazol-4-yl)-N-(piperidin-3-yl)benzamide]
220 nM | Cn1cc(-c2ccc(C(=O)N(c3nccc4sc(C#CCCCO)cc34)[C@@H]3CCCNC3)cc2O)cn1 [Example 476, 3-hydroxy-N-[2-(5-hydroxypent-1-ynyl)thieno[3,2-c]pyridin-4-yl]-4-(1-methylpyrazol-4-yl)-N-[(3R)-3-piperidyl] benzamide]
200 nM | CS(=O)(=O)c1cccc(-c2cc3c(N(C(=O)c4ccc(-n5nnc6cccnc65)cc4F)[C@@H]4CCCNC4)nccc3s2)c1 [Example 419, 2-fluoro-N-[2-(3-methylsulfonylphenyl)thieno[3,2-c]pyridin-4-yl]-N-[(3R)-3-piperidyl]-4-(triazolo[4,5-b]pyridin-3-yl)benzamide]
190 nM | CC(C)(Oc1cccc(-c2cc3c(N(C(=O)c4ccc(-n5nnc6cccnc65)cc4F)[C@@H]4CCCNC4)nccc3s2)c1)C(N)=O [Example 594]
170 nM | Cc1ccc(F)c2ccnc(N(C(=O)c3ccc(Nc4ncccn4)cc3F)[C@@H]3CCCNC3)c12 [Example 661, (R)-2-fluoro-N-(5-fluoro-8-methylisoquinolin-1-yl)-N-(piperidin-3-yl)-4-(pyrimidin-2-ylamino)benzamide]
160 nM | Cc1cc(C)c2c(N(C(=O)c3ccc(-c4nnc(C)o4)nc3)[C@@H]3CCCNC3)nccc2c1 [Example 642, (R)—N-(6,8-dimethylisoquinolin-1-yl)-6-(5-methyl-1,3,4-oxadiazol-2-yl)-N-(piperidin-3-yl)nicotinamide]
140 nM | Cc1nnc(-c2ccc(C(=O)N(c3nccc4c(C)ccc(C)c34)[C@@H]3CCCNC3)cn2)s1 [Example 897, N-(5,8-dimethyl-1-isoquinolyl)-6-(5-methyl-1,3,4-thiadiazol-2-yl)-N-[(3R)-3-piperidyl] pyridine-3-carboxamide]
130 nM | Cc1nnc(-c2ccc(C(=O)N(c3nccc4cc(Cl)cc(C)c34)[C@@H]3CCCNC3)cc2)o1 [Example 772, (R)—N-(6-chloro-8-methylisoquinolin-1-yl)-4-(5-methyl-1,3,4-oxadiazol-2-yl)-N-(piperidin-3-yl)benzamide]
130 nM | [2H]C([2H])([2H])c1nnc(-c2ccc(C(=O)N(c3nccc4cc(C)cc(C)c34)[C@@H]3CCCNC3)cc2)s1 [Example 907, N-(6,8-dimethyl-1-isoquinolyl)-N-[(3R)-3-piperidyl]-4-[5-(trideuteriomethyl)-1,3,4-thiadiazol-2-yl]benzamide]
120 nM | CNC(=O)c1ccc(-c2cc3c(N(C(=O)c4ccc(-n5nnc6cccnc65)cc4F)[C@@H]4CCCNC4)nccc3s2)cc1 [Example 380, 2-fluoro-N-[2-[4-(methylcarbamoyl)phenyl]thieno[3,2-c]pyridin-4-yl]-N-[(3R)-3-piperidyl]-4-(triazolo[4,5-b]pyridin-3-yl)benzamide]
110 nM | Cc1nnc(-c2ccc(C(=O)N(c3nccc4cc(Cl)cc(C)c34)[C@@H]3CCCNC3)cn2)o1 [Example 917, N-(6-chloro-8-methyl-1-isoquinolyl)-6-(5-methyl-1,3,4-oxadiazol-2-yl)-N-[(3R)-3-piperidyl]pyridine-3-carboxamide]
86 nM | COCc1nnc(-c2ccc(C(=O)N(c3nccc4scc(C)c34)[C@@H]3CCCNC3)cc2)s1 [Example 875, 4-[5-(methoxymethyl)-1,3,4-thiadiazol-2-yl]-N-(3-methylthieno[3,2-c]pyridin-4-yl)-N-[(3R)-3-piperidyl]benzamide]
79 nM | Cn1ccc2ccnc(N(C(=O)c3ccc(-n4nnc5cccnc54)cc3F)[C@@H]3CCCNC3)c21 [Example 317, (R)-4-(3H-[1,2,3]triazolo[4,5-b]pyridin-3-yl)-2-fluoro-N-(1-methyl-1H-pyrrolo[2,3-c]pyridin-7-yl)-N-(piperidin-3-yl)benzamide]
74 nM | CCn1cc(-c2ccc(C(=O)N(c3nccc4cc(Cl)cc(C)c34)[C@@H]3CCCNC3)c(F)c2)nn1 [Example 711, N-(6-chloro-8-methyl-1-isoquinolyl)-4-(1-ethyltriazol-4-yl)-2-fluoro-N-[(3R)-3-piperidyl] benzamide]
34 nM | Cc1cccc2ccnc(N(C(=O)c3ccc(Nc4ncnc(N5CCOCC5)n4)cc3F)[C@@H]3CCCNC3)c12 [Example 970, 2-fluoro-N-(8-methylisoquinolin-1-yl)-4-{[4-(morpholin-4-yl)-1,3,5-triazin-2-yl]amino}-N-[(3R)-piperidin-3-yl]benzamide]
26 nM | Cc1cccc2ccnc(N(C(=O)c3ccc(-c4cn(CCC#N)nn4)cc3F)[C@@H]3CCCNC3)c12 [Example 888, 4-[1-(2-cyanoethyl)triazol-4-yl]-2-fluoro-N-(8-methyl-1-isoquinolyl)-N-[(3R)-3-piperidyl]benzamide]
26 nM | Cc1cccc2ccnc(N(C(=O)c3ccc(Nc4nccc(N5CCOCC5C#N)n4)cc3F)[C@@H]3CCCNC3)c12 (stereo partly drawn) [Example 955, 4-((4-(3-cyanomorpholino)pyrimidin-2-yl)amino)-2-fluoro-N-(8-methylisoquinolin-1-yl)-N—((R)-piperidin-3-yl)benzamide]
